According to patent publication US10906915B2, “Substituted pyrazoloazepin-4-ones and their use as phosphodiesterase inhibitors” (LEO Pharma A/S, priority 2016, dated 2021):
pIC50: −log10 of the molar value. Where two headings read alike, the source gives them in different places.

Target: human PDE4D catalytic domain (UniProt no. Q08499) (Homo sapiens (Human), UniProt Q08499)
Assay: PDE4 assay (TR-FRET, FAM-cAMP cleavage)
Type: biochemical
Conditions: read-out: PDE4 IC50 range
Method in brief: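 Read-out is time-resolved FRET from Tb donor to FAM-AMP captured on trivalent-metal nanoparticles added to stop the reaction. Substrate was a mix of plain and FAM-labelled cAMP, cleaved by human PDE4D catalytic domain ([…]) with titrated compound; IC50 ranges (nM) versus controls.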

[1] = human PDE4D catalytic domain, molar concentration giving 50% inhibition of substrate cleavage

Chain of human PDE4D catalytic domain (Q08499 380-740 limits assumed): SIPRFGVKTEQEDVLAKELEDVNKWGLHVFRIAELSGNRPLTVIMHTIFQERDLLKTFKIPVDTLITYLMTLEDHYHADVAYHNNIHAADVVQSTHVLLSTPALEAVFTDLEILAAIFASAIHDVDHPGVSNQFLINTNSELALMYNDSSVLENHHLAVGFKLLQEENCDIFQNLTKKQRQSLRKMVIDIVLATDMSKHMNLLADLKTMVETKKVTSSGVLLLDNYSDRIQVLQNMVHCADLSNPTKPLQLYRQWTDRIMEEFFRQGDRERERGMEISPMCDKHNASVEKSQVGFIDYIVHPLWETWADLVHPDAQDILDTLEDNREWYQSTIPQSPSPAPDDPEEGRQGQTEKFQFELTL

Compound	pIC50 [1]	pIC50
CCc1nn(C[C@@H](C)COC(=O)c2ccc(OC)c(F)c2)c2c1C(=O)NCC1(CCOCC1)C2 [Example 188, [(2R)-3-(3-ethyl-4-oxo-spiro[6,8-dihydro-5H-pyrazolo[4,3-c]azepine-7,4′-tetrahydropyran]-1-yl)-2-methyl-propyl] 3-fluoro-4-methoxy-benzoate]	> 7.00	–
CCc1nn(CC2(COC(=O)c3cccc(F)c3)COC2)c2c1C(=O)NCC1(CCOCC1)C2 [Example 358, [3-[(3-ethyl-4-oxo-spiro[6,8-dihydro-5H-pyrazolo[4,3-c]azepine-7,4′-tetrahydropyran]-1-yl)methyl]oxetan-3-yl]methyl 3-fluorobenzoate]	–	> 7.00
CCc1nn(CCCCOC(=O)c2ccc(S(=O)(=O)NC)cc2)c2c1C(=O)NCC1(CCOCC1)C2 [Example 373, 4-(3-ethyl-4-oxo-spiro[6,8-dihydro-5H-pyrazolo[4,3-c]azepine-7,4′-tetrahydropyran]-1-yl)butyl 4-(methylsulfamoyl)benzoate]	–	6.30 to 7.00
CCc1nn(C(C)CCOC(=O)c2ccccc2)c2c1C(=O)NCC1(CCOCC1)C2 (stereo not drawn) [Example 362, 3-(3-ethyl-4-oxo-spiro[6,8-dihydro-5H-pyrazolo[4,3-c]azepine-7,4′-tetrahydropyran]-1-yl)butyl benzoate]	–	> 7.00
CCc1nn(CCCOC(=O)c2ccc(F)cc2)c2c1C(=O)NCC1(CCOCC1)C2 [Example 20, 3-(3-ethyl-4-oxo-spiro[6,8-dihydro-5H-pyrazolo[4,3-c]azepine-7,4′-tetrahydropyran]-1-yl)propyl 4-fluorobenzoate]	> 7.00	–
CCc1nn(C[C@@H](C)COC(=O)c2ccc(OC)c(Cl)c2)c2c1C(=O)NCC1(CCOCC1)C2 [Example 206, [(2R)-3-(3-ethyl-4-oxo-spiro[6,8-dihydro-5H-pyrazolo[4,3-c]azepine-7,4′-tetrahydropyran]-1-yl)-2-methyl-propyl] 3-chloro-4-methoxy-benzoate]	> 7.00	–
CCc1nn(CCCOC(=O)c2cc(C(F)(F)F)ccc2Cl)c2c1C(=O)NCC1(CCOCC1)C2 [Example 128, 3-(3-ethyl-4-oxo-spiro[6,8-dihydro-5H-pyrazolo[4,3-c]azepine-7,4′-tetrahydropyran]-1-yl)propyl 2-chloro-5-(trifluoromethyl)benzoate]	> 7.00	–
CCc1nn(C[C@@H](C)COC(=O)c2c(C)cccc2F)c2c1C(=O)NCC1(CCOCC1)C2 [Example 174, [(2R)-3-(3-ethyl-4-oxo-spiro[6,8-dihydro-5H-pyrazolo[4,3-c]azepine-7,4′-tetrahydropyran]-1-yl)-2-methyl-propyl] 2-fluoro-6-methyl-benzoate]	> 7.00	–
CCc1nn(CCCOC(=O)c2cccc(F)c2OC)c2c1C(=O)NCC1(CCOCC1)C2 [Example 70, 3-(3-ethyl-4-oxo-spiro[6,8-dihydro-5H-pyrazolo[4,3-c]azepine-7,4′-tetrahydropyran]-1-yl)propyl 3-fluoro-2-methoxy-benzoate]	> 7.00	–
CCc1nn(CC(C)(C)COC(=O)c2ccc(C#N)cc2)c2c1C(=O)NCC1(CCOCC1)C2 [Example 288, [3-(3-ethyl-4-oxo-spiro[6,8-dihydro-5H-pyrazolo[4,3-c]azepine-7,4′-tetrahydropyran]-1-yl)-2,2-dimethyl-propyl] 4-cyanobenzoate]	–	> 7.00
CCc1nn(CC(C)(C)COC(=O)c2cccc(S(N)(=O)=O)c2)c2c1C(=O)NCC1(CCOCC1)C2 [Example 308, [3-(3-ethyl-4-oxo-spiro[6,8-dihydro-5H-pyrazolo[4,3-c]azepine-7,4′-tetrahydropyran]-1-yl)-2,2-dimethyl-propyl] 3-sulfamoylbenzoate]	–	> 7.00
CCc1nn(CCCOC(=O)c2cc(F)ccc2Cl)c2c1C(=O)NCC1(CCOCC1)C2 [Example 82, 3-(3-ethyl-4-oxo-spiro[6,8-dihydro-5H-pyrazolo[4,3-c]azepine-7,4′-tetrahydropyran]-1-yl)propyl 2-chloro-5-fluoro-benzoate]	> 7.00	–
CCc1nn(C[C@@H](C)COC(=O)c2cccc(C#N)c2)c2c1C(=O)NCC1(CCOCC1)C2 [Example 167, [(2R)-3-(3-ethyl-4-oxo-spiro[6,8-dihydro-5H-pyrazolo[4,3-c]azepine-7,4′-tetrahydropyran]-1-yl)-2-methyl-propyl] 3-cyanobenzoate]	> 7.00	–
CCc1nn(CC(C)(C)COC(=O)c2ccc(C(=O)N3CCN(C)CC3)cc2)c2c1C(=O)NCC1(CCOCC1)C2 [Example 337, [3-(3-ethyl-4-oxo-spiro[6,8-dihydro-5H-pyrazolo[4,3-c]azepine-7,4′-tetrahydropyran]-1-yl)-2,2-dimethyl-propyl] 4-(4-methylpiperazine-1-carbonyl)benzoate]	–	> 7.00
CCc1nn(CCCOC(=O)c2cc(F)cc(F)c2)c2c1C(=O)NCC1(CCOCC1)C2 [Example 43, 3-(3-ethyl-4-oxo-spiro[6,8-dihydro-5H-pyrazolo[4,3-c]azepine-7,4′-tetrahydropyran]-1-yl)propyl 3,5-difluorobenzoate]	> 7.00	–
CCc1nn(CCCOC(=O)c2cc(F)cc(Cl)c2)c2c1C(=O)NCC1(CCOCC1)C2 [Example 79, 3-(3-ethyl-4-oxo-spiro[6,8-dihydro-5H-pyrazolo[4,3-c]azepine-7,4′-tetrahydropyran]-1-yl)propyl 3-chloro-5-fluoro-benzoate]	> 7.00	–
CCc1nn(CC(C)(C)COC(=O)c2cccc(C(=O)N3CCN(C)CC3)c2)c2c1C(=O)NCC1(CCOCC1)C2 [Example 348, [3-(3-ethyl-4-oxo-spiro[6,8-dihydro-5H-pyrazolo[4,3-c]azepine-7,4′-tetrahydropyran]-1-yl)-2,2-dimethyl-propyl] 3-(4-methylpiperazine-1-carbonyl)benzoate]	–	> 7.00
CCc1nn(CC(C)(C)COC(=O)c2ccc(S(=O)(=O)N3CCOCC3)cc2)c2c1C(=O)NCC1(CCOCC1)C2 [Example 322, [3-(3-ethyl-4-oxo-spiro[6,8-dihydro-5H-pyrazolo[4,3-c]azepine-7,4′-tetrahydropyran]-1-yl)-2,2-dimethyl-propyl] 4-morpholinosulfonylbenzoate]	–	> 7.00
CCc1nn(CCCOC(=O)c2ccc(S(C)(=O)=O)cc2)c2c1C(=O)NCC1(CCOCC1)C2 [Example 98, 3-(3-ethyl-4-oxo-spiro[6,8-dihydro-5H-pyrazolo[4,3-c]azepine-7,4′-tetrahydropyran]-1-yl)propyl 4-methylsulfonylbenzoate]	> 7.00	–
CCc1nn(C[C@@H](C)COC(=O)c2ccc(F)c(OC)c2)c2c1C(=O)NCC1(CCOCC1)C2 [Example 193, [(2R)-3-(3-ethyl-4-oxo-spiro[6,8-dihydro-5H-pyrazolo[4,3-c]azepine-7,4′-tetrahydropyran]-1-yl)-2-methyl-propyl] 4-fluoro-3-methoxy-benzoate]	> 7.00	–
CCc1nn(C[C@@H](C)COC(=O)c2ccc(S(=O)(=O)N3CCOCC3)cc2)c2c1C(=O)NCC1(CCOCC1)C2 [Example 249, [(2R)-3-(3-ethyl-4-oxo-spiro[6,8-dihydro-5H-pyrazolo[4,3-c]azepine-7,4′-tetrahydropyran]-1-yl)-2-methyl-propyl] 4-morpholinosulfonylbenzoate]	> 7.00	–
CCc1nn(CCCCOC(=O)c2ccc(S(=O)(=O)N3CCCC3)cc2)c2c1C(=O)NCC1(CCOCC1)C2 [Example 377, 4-(3-ethyl-4-oxo-spiro[6,8-dihydro-5H-pyrazolo[4,3-c]azepme-7,4′-tetrahydropyran]-1-yl)butyl 4-pyrrolidin-1-ylsulfonylbenzoate]	–	6.30 to 7.00
CCc1nn(C[C@@H](C)COC(=O)c2ccc(C(=O)NC)cc2)c2c1C(=O)NCC1(CCOCC1)C2 [Example 253, [(2R)-3-(3-ethyl-4-oxo-spiro[6,8-dihydro-5H-pyrazolo[4,3-c]azepine-7,4′-tetrahydropyran]-1-yl)-2-methyl-propyl] 4-(methylcarbamoyl)benzoate]	> 7.00	–
CCc1nn(CC(C)(C)COC(=O)c2cccc(F)c2)c2c1C(=O)NCC1(CCOCC1)C2 [Example 284, [3-(3-ethyl-4-oxo-spiro[6,8-dihydro-5H-pyrazolo[4,3-c]azepine-7,4′-tetrahydropyran]-1-yl)-2,2-dimethyl-propyl] 3-fluorobenzoate]	–	> 7.00
CCc1nn(CCCOC(=O)C2CCC(OC)CC2)c2c1C(=O)NCC1(CCOCC1)C2 (stereo not drawn) [Example 48, 3-(3-ethyl-4-oxo-spiro[6,8-dihydro-5H-pyrazolo[4,3-c]azepine-7,4′-tetrahydropyran]-1-yl)propyl 4-methoxycyclohexane-carboxylate]	6.30 to 7.00	–
CCc1nn(CCCOC(=O)c2cccc(C(N)=O)c2)c2c1C(=O)NCC1(CCOCC1)C2 [Example 150, 3-(3-ethyl-4-oxo-spiro[6,8-dihydro-5H-pyrazolo[4,3-c]azepine-7,4′-tetrahydropyran]-1-yl)propyl 3-carbamoylbenzoate]	> 7.00	–
CCc1nn(C[C@@H](C)COC(=O)c2ccc(C(F)(F)F)c(Cl)c2)c2c1C(=O)NCC1(CCOCC1)C2 [Example 234, [(2R)-3-(3-ethyl-4-oxo-spiro[6,8-dihydro-5H-pyrazolo[4,3-c]azepine-7,4′-tetrahydropyran]-1-yl)-2-methyl-propyl] 3-chloro-4-(trifluoromethyl)benzoate]	> 7.00	–
CCc1nn(CCCOC(=O)c2cccc(Cl)c2)c2c1C(=O)NCC1(CCOCC1)C2 [Example 41, 3-(3-ethyl-4-oxo-spiro[6,8-dihydro-5H-pyrazolo[4,3-c]azepine-7,4′-tetrahydropyran]-1-yl)propyl 3-chlorobenzoate]	> 7.00	–
CCc1nn(CCCOC(=O)c2ccc(F)cc2OC)c2c1C(=O)NCC1(CCOCC1)C2 [Example 71, 3-(3-ethyl-4-oxo-spiro[6,8-dihydro-5H-pyrazolo[4,3-c]azepine-7,4′-tetrahydropyran]-1-yl)propyl 4-fluoro-2-methoxy-benzoate]	> 7.00	–
CCc1nn(CCCOC(=O)c2c(F)cccc2C(F)(F)F)c2c1C(=O)NCC1(CCOCC1)C2 [Example 107, 3-(3-ethyl-4-oxo-spiro[6,8-dihydro-5H-pyrazolo[4,3-c]azepine-7,4′-tetrahydropyran]-1-yl)propyl 2-fluoro-6-(trifluoromethyl)benzoate]	> 7.00	–
